Reference: US6723726B1 (SmithKline Beecham Corporation, priority 1996, dated 2004)
Where a name gives a salt, the structure may show the parent alone. Read-outs that look alike come from different tables or passages of the source.

Legend:
[1] = target: T1, EGFr isolated from solubilised A431 cell membranes (Homo sapiens, UniProt P00533); test: Substrate phosphorylation assay, EGFr; assay type: biochemical; details: ATP and peptide at Km, 30 min, room temperature
T1 construct: EGFr isolated from solubilised A431 cell membranes; endogenous in cells; host or cells: A431 cell membranes (solubilised)
T1 sequence (P00533 25-1210): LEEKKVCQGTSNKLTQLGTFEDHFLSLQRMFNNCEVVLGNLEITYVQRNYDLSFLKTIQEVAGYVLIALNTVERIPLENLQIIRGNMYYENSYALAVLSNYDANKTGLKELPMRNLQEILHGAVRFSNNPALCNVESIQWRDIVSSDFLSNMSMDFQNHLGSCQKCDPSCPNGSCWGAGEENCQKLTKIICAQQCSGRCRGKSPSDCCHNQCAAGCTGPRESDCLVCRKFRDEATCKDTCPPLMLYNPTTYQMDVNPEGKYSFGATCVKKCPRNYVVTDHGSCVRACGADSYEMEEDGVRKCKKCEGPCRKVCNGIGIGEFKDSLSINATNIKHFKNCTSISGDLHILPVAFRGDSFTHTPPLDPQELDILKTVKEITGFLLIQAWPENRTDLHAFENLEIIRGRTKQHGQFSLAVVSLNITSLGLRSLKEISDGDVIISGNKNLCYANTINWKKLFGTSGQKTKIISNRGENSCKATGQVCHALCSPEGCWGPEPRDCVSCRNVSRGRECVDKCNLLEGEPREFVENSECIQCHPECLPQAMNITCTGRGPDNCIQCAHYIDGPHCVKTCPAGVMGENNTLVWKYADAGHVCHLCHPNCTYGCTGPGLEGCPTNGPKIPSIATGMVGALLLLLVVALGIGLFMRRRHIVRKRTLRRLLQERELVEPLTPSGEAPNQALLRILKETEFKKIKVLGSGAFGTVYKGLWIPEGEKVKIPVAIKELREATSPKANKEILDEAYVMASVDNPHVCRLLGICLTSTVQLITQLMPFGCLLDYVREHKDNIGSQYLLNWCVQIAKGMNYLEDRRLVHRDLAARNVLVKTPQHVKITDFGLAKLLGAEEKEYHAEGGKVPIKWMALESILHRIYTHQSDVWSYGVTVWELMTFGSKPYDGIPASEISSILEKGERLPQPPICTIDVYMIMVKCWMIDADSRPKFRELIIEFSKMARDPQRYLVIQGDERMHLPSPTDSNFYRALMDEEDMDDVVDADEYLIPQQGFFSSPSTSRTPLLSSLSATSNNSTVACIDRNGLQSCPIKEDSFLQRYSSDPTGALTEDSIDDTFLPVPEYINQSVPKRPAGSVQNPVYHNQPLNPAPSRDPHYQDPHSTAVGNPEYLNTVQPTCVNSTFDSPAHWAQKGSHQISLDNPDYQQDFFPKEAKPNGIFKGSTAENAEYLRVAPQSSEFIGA
Method: (§1) The substrate phosphorylation assays use baculovirus expressed, recombinant constructs of the intracellular domains of c-erbB-2 and c-erbB-4 that are constitutively active and EGFr isolated from solubilised A431 cell membranes. The method measures the ability of the isolated enzymes to catalyse the transfer of the γ-phosphate from ATP onto tyrosine residues in a biotinylated synthetic peptide (Biotin-[…]. […] The reaction is stopped by the addition of EDTA (final concentration 0.15 mM) and a sample is transferred to a streptavidin-coated 96-well plate. The plate is washed and level of phosphotyrosine on the peptide is determined using a Europium-labelled antiphosphotyrosine antibody and quantified with a time-resolved fluorescence technique.

[2] = tested on: HB4a erbB-2 cells; test: Cell proliferation assay, HB4a transformed by over-expression of c-erbB-2; assay type: cell-based, human; details: read-out: Cell Proliferation HB4a erbB-2 IC50
Method: (§2) The cell proliferation assay uses an immortalised human breast epithelial cell line (HB4a) which has been transformed by over-expression of c-erbB-2. Growth of these cells in low serum is dependent upon the c-erbB-2 tyrosine kinase activity. The specificity of the effect of the test compounds on tyrosine kinase dependent growth over general toxicity is assessed by comparison to an HB4a cell line which has been transfected with ras. Cells are plated at 3000/well in 96-well plates in 0.1 ml medium and allowed to attach overnight, test compound is added in 0.1 ml medium, with a final concentration of 0.5% DMSO, and the plates incubated for 4 days at 37° C. The cells are then examined microscopically for evidence of morphological detransformation and cell mass is estimated by staining with methylene blue and measuring the absorbance at 620 nm. The results are shown in Table 1 below as the IC50 values in nM. Activity against a range of naturally occurring EGFr or c-erbB-2 over-expressing human tumour cell lines (BT474-breast, HN5-head and neck, N87-gastric and Calu3-lung) is assessed with selected compounds by the same methodology. The results are also shown in Table 1 below as the IC50 values in nM.

[3] = target: T2, c-erbB-4 (baculovirus expressed recombinant intracellular domain) (Homo sapiens, UniProt Q15303); test: Substrate phosphorylation assay, c-erbB-4; assay type: biochemical; details: ATP and peptide at Km, 30 min, room temperature
T2 construct: baculovirus expressed, recombinant constructs of the intracellular domains of c-erbB-2 and c-erbB-4 that are constitutively active; made in house
T2 sequence (Q15303 676-1308 limits assumed): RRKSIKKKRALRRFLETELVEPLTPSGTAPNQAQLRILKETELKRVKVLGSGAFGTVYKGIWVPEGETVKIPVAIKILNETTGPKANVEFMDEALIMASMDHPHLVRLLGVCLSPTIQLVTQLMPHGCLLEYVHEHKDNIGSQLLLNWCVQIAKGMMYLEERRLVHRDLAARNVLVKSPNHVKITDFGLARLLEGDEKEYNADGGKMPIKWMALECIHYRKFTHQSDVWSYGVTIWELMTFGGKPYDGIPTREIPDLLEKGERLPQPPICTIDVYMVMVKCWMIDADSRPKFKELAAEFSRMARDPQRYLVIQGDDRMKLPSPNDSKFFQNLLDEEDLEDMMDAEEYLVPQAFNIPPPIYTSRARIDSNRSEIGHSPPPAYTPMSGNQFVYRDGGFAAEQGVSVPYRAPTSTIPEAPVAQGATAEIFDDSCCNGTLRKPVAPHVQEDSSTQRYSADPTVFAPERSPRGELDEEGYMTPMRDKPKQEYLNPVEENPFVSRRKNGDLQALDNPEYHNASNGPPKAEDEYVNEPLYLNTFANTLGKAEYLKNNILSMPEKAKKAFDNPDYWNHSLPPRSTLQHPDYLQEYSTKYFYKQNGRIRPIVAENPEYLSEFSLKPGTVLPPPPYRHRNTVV
Method: as §1

[4] = tested on: N87 cells; test: Cell proliferation assay, N87 gastric tumour cell line; assay type: cell-based, human; details: read-out: Cell Proliferation N87 IC50
Method: as §2

[5] = tested on: HB4a ras cells; test: Cell proliferation assay, HB4a transfected with ras (general toxicity comparison); assay type: cell-based, human; details: read-out: Cell Proliferation HB4a ras IC50
Method: as §2

[6] = tested on: BT474 cells; test: Cell proliferation assay, BT474 breast tumour cell line; assay type: cell-based, human; details: read-out: Cell Proliferation BT474 IC50
Method: as §2

[7] = target: T3, c-erbB-2 (baculovirus expressed recombinant intracellular domain) (Homo sapiens, UniProt P04626); test: Substrate phosphorylation assay, c-erbB-2; assay type: biochemical; details: ATP and peptide at Km, 30 min, room temperature
T3 construct: baculovirus expressed, recombinant constructs of the intracellular domains of c-erbB-2 and c-erbB-4 that are constitutively active; made in house
T3 sequence (P04626 676-1255 limits assumed): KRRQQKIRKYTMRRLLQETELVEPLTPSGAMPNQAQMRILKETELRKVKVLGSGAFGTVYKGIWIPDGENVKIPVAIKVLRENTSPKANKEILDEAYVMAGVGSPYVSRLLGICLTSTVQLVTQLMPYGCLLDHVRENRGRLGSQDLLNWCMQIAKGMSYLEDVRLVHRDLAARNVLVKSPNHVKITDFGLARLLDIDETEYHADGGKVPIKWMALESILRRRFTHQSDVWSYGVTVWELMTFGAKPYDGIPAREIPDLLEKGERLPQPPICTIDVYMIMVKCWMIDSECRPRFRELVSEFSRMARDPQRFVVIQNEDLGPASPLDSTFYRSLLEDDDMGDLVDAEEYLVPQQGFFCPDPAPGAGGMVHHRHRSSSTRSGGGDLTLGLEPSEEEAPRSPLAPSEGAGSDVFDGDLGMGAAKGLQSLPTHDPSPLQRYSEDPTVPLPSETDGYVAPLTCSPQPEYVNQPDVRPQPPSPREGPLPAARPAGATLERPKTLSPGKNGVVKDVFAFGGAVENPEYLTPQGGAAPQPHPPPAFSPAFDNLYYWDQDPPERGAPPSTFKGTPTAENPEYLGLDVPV
Method: as §1

[8] = tested on: HN5 cells; test: Cell proliferation assay, HN5 head and neck tumour cell line; assay type: cell-based; details: Homo sapiens, HN5, 96 h, read-out: Cell Proliferation HN5 IC50
Method: as §2

[9] = tested on: Calu3 cells; test: Cell proliferation assay, Calu3 lung tumour cell line; assay type: cell-based, human; details: Homo sapiens, Calu-3, 96 h, read-out: Cell Proliferation Calu3 IC50
Method: as §2

[10] = Homo sapiens, HB4a, 96 h, 4 days, methylene blue staining
[11] = Homo sapiens, 96 h, 4 days, methylene blue staining
[12] = Homo sapiens, BT-474, 96 h, 4 days, methylene blue staining
[13] = 4 days, methylene blue staining

SMILES | IC50 [1] | IC50 [3] | IC50 [4, 11] | IC50 [6, 12] | IC50 [7] | IC50 [4, 13] | IC50 [6, 13] | IC50 [8, 13] | IC50 [9, 13] | IC50 ([4]; Homo sapiens, 96 h) | IC50 [8] | IC50 [9] | IC50 ([6]; Homo sapiens, BT-474, 96 h) | IC50 [2, 10] | IC50 [5, 10] | IC50 [2, 13] | IC50 [5, 13] | IC50 ([2]; Homo sapiens, HB4a, 96 h) | IC50 ([5]; Homo sapiens, HB4a, 96 h)
c1ccc(Cn2ncc3cc(Nc4ncnc5cnc(N6CCCCC6)cc45)ccc32)cc1 [Example 25] | 380 nM | 570 nM | – | – | 60 nM | 940 nM | 270 nM | – | – | – | – | – | – | – | – | 480 nM | > 50000 nM | – | –
CN(C)c1cc2c(Nc3ccc4c(cnn4Cc4cccc(F)c4)c3)ncnc2cn1 [Example 16, N4-(1-(3-Fluoro-benzyl)-1H-indazol-5-yl)-N6,N6-dimethyl-pyrido[3,4-d]pyrimidine-4.6-diamine Hydrochloride] | – | 96 nM | 120 nM | 1 nM | 9 nM | – | – | 81 nM | 180 nM | – | – | – | – | 44 nM | 11000 nM | – | – | – | –
CS(=O)(=O)CCNCc1ccc(-c2cc3c(Nc4ccc5c(cnn5Cc5ccccc5)c4)ncnc3cn2)o1 [Example 34, (1-Benzyl-1H-indazol-5-yl)-(6-(5-((2-methanesuphonyl-ethylamino)-methyl)-furan-2-yl)-pyrido-[3,4-d]pyrimidin-4-yl)-amine Hydrochloride] | – | 230 nM | 190 nM | 2 nM | 15 nM | – | – | 190 nM | 1300 nM | – | – | – | – | 70 nM | 17000 nM | – | – | – | –
CN(C)c1cc2c(Nc3ccc4c(cnn4Cc4ccccc4)c3)ncnc2cn1 [Example 2, N 4-(1-Benzyl-1H-indazol-5-yl)-N6,N6-dimethyl-pyrido[3,4-d]pyrimidine-4.6-diamine] | – | 20 nM | – | – | 19 nM | – | – | – | – | 240 nM | 300 nM | 380 nM | 140 nM | – | – | – | – | 110 nM | 17000 nM
CN(C)c1cc2c(Nc3ccc4nc(Cc5ccccc5)[nH]c4c3)ncnc2cn1 [Example 7, N4-(2-Benzyl-1H-benzimidazol-5-yl)-N6,N6-dimethyl-pyrido[3,4-d]pyrimidine-4,6-diamine] | – | 21 nM | – | 610 nM | 7 nM | – | – | – | 8000 nM | – | – | – | – | 1900 nM | 19000 nM | – | – | – | –

The next lines start with results.

IC50 [1] | IC50 [3] | IC50 [4, 11] | IC50 [6, 12] | IC50 [7] | IC50 [4, 13] | IC50 [6, 13] | IC50 [8, 13] | IC50 [9, 13] | IC50 ([4]; Homo sapiens, 96 h) | IC50 [8] | IC50 [9] | IC50 ([6]; Homo sapiens, BT-474, 96 h) | SMILES | IC50 [2, 10] | IC50 [5, 10] | IC50 [2, 13] | IC50 [5, 13] | IC50 ([2]; Homo sapiens, HB4a, 96 h) | IC50 ([5]; Homo sapiens, HB4a, 96 h)
2 nM | 5500 nM | 10000 nM | 11000 nM | 2 nM | – | – | – | – | – | – | – | – | Cc1nnc(-c2cc3c(Nc4ccc5c(cnn5Cc5ccccc5)c4)ncnc3cn2)o1 [Example 29, (1-Benzyl-1H-indazol-5-yl)-(6-(5-methyl-1,3,4-oxadiazol-2-yl)-pyrido[3,4-d]pyrimidin-4-yl)-amine Hydrochloride] | 5200 nM | 29000 nM | – | – | – | –
30 nM | 180 nM | 2200 nM | 1100 nM | 65 nM | – | – | 2000 nM | 3700 nM | – | – | – | – | CNc1cc2c(Nc3ccc4c(cnn4Cc4ccccc4)c3)ncnc2cn1 [Example 37, N4-(1-Benzyl-1H-indazol-5-yl)-N6-methyl-pyrido[3,4-d]pyrimidine-4,6diamine] | 520 nM | 17000 nM | – | – | – | –
– | 140 nM | 600 nM | 1000 nM | 55 nM | – | – | 4200 nM | 8200 nM | – | – | – | – | CN1CCN(c2cc3c(Nc4ccc5c(cnn5Cc5ccccc5)c4)ncnc3cn2)CC1 [Example 32, (1-Benzyl-1H-indazol-5-yl)-(6-(4-methyl-piperazin-1-yl)-pyrido[3,4-d]pyrimidin-4-yl)-amine] | 100 nM | 8800 nM | – | – | – | –
15 nM | 55 nM | 370 nM | 1400 nM | 9 nM | – | – | 1400 nM | 1200 nM | – | – | – | – | Cn1cncc1-c1cc2c(Nc3ccc4c(cnn4Cc4ccccc4)c3)ncnc2cn1 [Example 11, (1-Benzyl-1H-indazol-5-yl)-(6-(3-methyl-3H-imidazol-4-yl)-pyrido[3,4-d]pyrimidin-4-yl)-amine] | 1400 nM | 3800 nM | – | – | – | –
– | 10 nM | 2 nM | 2 nM | 6 nM | – | – | 130 nM | 160 nM | – | – | – | – | NC(=O)[C@@H]1CCCN1Cc1ccc(-c2cc3c(Nc4ccc5c(cnn5Cc5ccccc5)c4)ncnc3cn2)o1 [Example 10, (2S)1-(5-(4-(1-Benzyl-1H-indazol-5-ylamino)-6-pydrido[3,4-d]pyrimidin-6-yl)-furan-2-ylmethyl)-pyrrolidine-2-carboxylic Acid Amide Hydrochloride] | 71 nM | 21000 nM | – | – | – | –
